Measurements reported in patent US20160361311A1, “LIGANDS THAT TARGET HEPATITIS C VIRUS E2 PROTEIN” (AMERICAN UNIVERSITY OF CAIRO, priority 2014, published 2016).
Read-outs that look alike come from different tables or passages of the source.

Columns and labels:
[1] = target: T1, recombinant E2 protein (Hepatitis C virus genotype 1b, UniProt Q9WMX2); assay: Surface plasmon resonance (Biacore T100) binding to recombinant E2 immobilized on CM5 chip; conditions: for Binding (RU): 200 μM ligand in PBS, 3 min association; for rate of ligand dissociation (in words): compared to the other ligands; for Dissociation 1 (RU): response remaining 10 sec after rinsing with buffer; for Dissociation 2 (RU): response remaining 50 sec after rinsing with buffer
T1 construct: encoding amino acids 384-656 of the Con1 envelope protein 2 ectodomain (eE2); made in house; host or cells: HEK293T cells (lentiviral, secreted)
T1 sequence (Q9WMX2 384-656): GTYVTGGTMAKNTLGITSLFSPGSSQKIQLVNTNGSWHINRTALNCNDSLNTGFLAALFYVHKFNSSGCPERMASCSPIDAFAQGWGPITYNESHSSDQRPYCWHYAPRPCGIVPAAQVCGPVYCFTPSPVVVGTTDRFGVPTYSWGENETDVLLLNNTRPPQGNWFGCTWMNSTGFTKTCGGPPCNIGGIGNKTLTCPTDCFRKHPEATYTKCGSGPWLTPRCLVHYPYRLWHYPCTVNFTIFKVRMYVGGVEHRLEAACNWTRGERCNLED
Source text: A construct containing the sequence encoding amino acids 384-656 of the Con1 envelope protein 2 ectodomain (eE2), a genoptype 1 E2 sequence, was cloned into a lentiviral expression vector with a carboxy-terminal Protein A tag separated by a PreScission Protease cleavage consensus sequence. eE2-ProtA was stably expressed in HEK293T cells using lentiviral infection. The protein was secreted into the media and supernatants were purified using IgG Sepharose (GE Healthcare, Piscataway, N.J.). eE2-ProtA was eluted with 100 mM sodium citrate and 20 mM KCl at pH 3 directly into tubes containing 1M Tris pH 9 for immediate neutralization. PreScission Protease was added to the eluted sample at a ratio of 1:50 (enzyme:eE2), and the digest was then dialyzed into 20 mM HEPES pH 7.5, 250 mM NaCl, 5% glycerol. eE2 was separated from the cleaved tag and the PreScission Protease by ion exchange chromatography.
The set of 34 of the ligands predicted by AutoDock to bind to E2 were tested experimentally to determine if they bind to recombinant E2 protein immobilized on a chip using surface Plasmon resonance. The SPR analyses were performed using a Biacore T100 workstation (GE Healthcare, NJ, USA) and Prot-A-tagged HCV E2 protein. 1 μM ProtA-HCV E2 was diluted into 10 mM sodium acetate buffer pH 5 and immobilized for 15 min at a flow speed of 5 μl/min onto a CM5 sensor chip using amine coupling (EDC-NHS). Approximately 10,000 response units (RU) of protein were immobilized on the chip. His-CD81-LEL (Bioclone-CA/USA) binding to HCV E2 was tested prior to injecting the ligands to confirm the E2 protein was functional and would bind CD81-LEL. In a typical experiment with CD81, […] of his-CD81 in 114 μl PBS was injected into channel 2 and 106.4 RUs of CD81 bound to the E2 on the chip. This was followed by testing the binding of the 34 virtual screening hits where the ligands were prepared as 200 μM solutions in PBS and they were introduced to the protein using a pre-programmed 3 min association and 1 min dissociation interval. The response was measured at two time points during dissociation, 10 and 50 seconds, to obtain information on the rate of ligand dissociation from E2. Twenty-three of the ligands predicted by AutoDock to bind to E2 were observed by SPR to bind to the recombinant protein (Table 2). The measured responses for the ligands that bound varied from 54 to 276 RUs. Data was also obtained on the rate of ligand dissociation by measuring the amount of ligand remaining bound at two time points, dissociation 1 (10 seconds) and dissociation 2 (50 seconds), during the rinsing of the chip with buffer (FIG. 8). The majority of the ligands dissociated quickly, as one might expect for small molecules that bind to the surface of a protein.

[2] = system: RD114pp; assay: RD114pp infection of Huh-7 cells (luciferase); assay type: cell-based, feline endogenous virus RD114; conditions: read-out: IC50 RD114pp
Protocol: (§1) Pseudotyped retroviral particles harboring HCV envelope proteins (HCVpp) from different genotypes were produced as described previously. A plasmid encoding the feline endogenous virus RD114 glycoprotein [35] was used for the production of RD114pp. Both HCVpp and RD114pp expressed Firefly luciferase.
(§2) To identify ligands that inhibit HCV infection, Huh-7 cells were seeded in 96-well plates and treated the day after with six different concentrations of each ligand diluted in DMSO in duplicate using a Zephyr automated liquid handling workstation (Caliper BioSciences, Hopkinton, Mass.). The final concentration of DMSO (1%) was adjusted to be the same for all ligand concentrations. Cells treated with DMSO were used as negative controls. Cells treated with different concentrations of anti-CD81 (JS-81 from BD Pharmingen, San Jose, Calif.) 1 hour before infection, were also used as positive controls. The third day, RD114pp, HCVpp or HCVcc were inoculated and incubated for 30 hours at 37° C. Firefly and Gaussia luciferase assays were performed as indicated by the manufacturer (Promega, San Luis Obispo, Calif.).
Pseudotyped retroviral particles harboring the envelope protein of an endogenous feline retrovirus (RD114pp) were first used to determine the specificity and the safety of molecules.

[3] = system: HCVpp 2a; assay: HCVpp 2a infection of Huh-7 cells, 96-well (luciferase); assay type: cell-based, HCV; conditions: Hepatitis C virus, Huh-7, 30 h, read-out: IC50 HCVpp
Protocol: as §1, §2
(§3) The remaining ligands were next tested against pseudotyped retroviral particles harboring genotype-2a HCV envelope proteins (HCVpp 2a), cell culture produced HCV particles (HCVcc) or RD114pp. As a positive control, an anti-CD81 antibody was used in parallel.

[4] = system: HCVcc; assay: HCVcc infection of Huh-7 cells (Gaussia luciferase); assay type: cell-based, HCV; conditions: Hepatitis C virus, Huh-7, 30 h, read-out: IC50 HCVcc
Protocol: The cell culture-produced HCV particles (HCVcc) used in this study were based on the JFH1 strain [36] and were prepared as described previously. They were engineered to express the A4 epitope, titer-enhancing mutations and Gaussia luciferase.
as §2, §3

[5] = Feline endogenous virus RD114, Huh-7, 30 h

Row | Compound | binding to recombinant E2 protein by SPR (in words) [1] | Binding (RU) [1] [RU] | rate of ligand dissociation (in words) [1] | Dissociation 1 (RU) [1] [RU] | Dissociation 2 (RU) [1] [RU] | IC50 [2, 5] [µM] | IC50 [3] [µM] | IC50 [4] [µM] | IC50 ([2]; Huh-7 cells, 30 hours) [µM]
1 | O=C(O)C[C@H]1OCC=C2CN3CC[C@]45c6ccccc6N[C@H]4[C@H]1[C@H]2C[C@H]35 [Ligand 121861] | bound | 88.4 | slower off rates | 26.1 | 20.4 | > 10 | > 10 | > 10 | 
2 | CC12CCC3C(CCC4Cc5[nH]c6ccccc6c5CC43C)C1CCC2O (stereo not shown) [Ligand 60785] |  | 70.4 |  | 2.8 | 0.6 | 3.5 |  |  | 
3 | NC1=N[C@@H](c2ccc(Cl)cc2)N(c2ccc(S(N)(=O)=O)cc2)C(N)=N1 [Ligand 117268] |  | 88.5 |  | 4.1 | 1.2 | 0.1 | > 10 | > 10 | 
4 | Cc1nc(/N=C(\N)N(C)C)[nH]c(=O)c1C [Ligand 113486, 2-(5,6-dimethyl-4-oxo-1H-pyrimidin-2-yl)-1,1-dimethylguanidine] |  | 104.7 |  | 7 | 2.6 | > 10 | > 10 | > 10 | 
5 | Cc1ccc([N+](=O)[O-])cc1NC(=O)Nc1ccc(S(N)(=O)=O)cc1 [Ligand 146554, 1-(2-methyl-5-nitrophenyl)-3-(4-sulfamoylphenyl)urea] |  | 63.4 |  | 3.1 | 0.8 | > 10 |  |  | 
6 | C[C@]12CC[C@@H]3c4ccc(OCC(=O)O)cc4CC[C@H]3[C@@H]1CCC2=O [Ligand 86467, 2-[[(8R,9S,13S,14S)-13-methyl-17-oxo-7,8,9,11,12,14,15,16-octahydro-6H-cyclopenta[a]phenanthren-3-yl]oxy]acetate] | bound | 54.9 |  | 1.9 | 0.8 | > 10 | > 10 | > 10 | 
7 | O=C(Nc1cccc([N+](=O)[O-])c1)c1cccc(C(=O)Nc2cccc([N+](=O)[O-])c2)c1 [Ligand 204232] |  | 63.4 |  | 2.5 | 0.4 | > 10 | > 10 | > 10 | 
8 | Cc1ccc([N+](=O)[O-])cc1NC(=O)Nc1onc(C)c1C [Ligand 213700, 1-(3,4-dimethyl-1,2-oxazol-5-yl)-3-(2-methyl-5-nitrophenyl)urea] |  | 62 |  | 3.1 | 0.8 | > 10 | > 10 | > 10 | 
9 | C1C[C@H]2NCC[C@@H]3NCC[C@H](N1)N32 [Ligand 81462] |  | 57.2 | slower off rates | 9.2 | 6.5 | > 10 | > 10 | > 10 | 
10 | NC1=N/C(=N\c2ccccc2)N[C@H](c2ccccc2)N1 [Ligand 3076, (4R)-6-N,4-diphenyl-1,4-dihydro-1,3,5-triazine-2,6-diamine] |  | 92.2 |  | 3.2 | 1.6 | 0.25 |  |  | 
11 | CC1(C)N=C(N)N=C(N)N1c1ccc(OCCCOc2ccccc2)c(Cl)c1 [Ligand 133071, 3-[3-chloro-4-(3-phenoxypropoxy)phenyl]-4,4-dimethyl-1H-1,3,5-triazin-3-ium-2,6-diamine] |  | 276.3 |  | 1.8 | −2 | 0.1 |  |  | 
12 | CC[C@@]1(O)C(=O)OCc2c1cc1n(c2=O)Cc2cc3c(NC(=O)CN)cccc3nc2-1.Cl [Ligand 639174] |  | 55.4 |  | 2.3 | 0.6 |  |  |  | 0.03
13 | O=C1CCCc2cc3c(cc21)CC1(C3)Cc2cc3c(cc2C1)C(=O)CCC3 [Ligand 670283, 2,2′-spirobi[3,6,7,8-tetrahydro-1H-cyclopenta[g]naphthalene]-5,5′-dione] |  | 54.3 |  | 4 | 1.4 | 3 |  |  | 
14 | c1ccc(-c2ccc3c(c2)N[C@H]([C@H]2Nc4cc(-c5ccccc5)ccc4O2)O3)cc1 [Ligand 84100, (2S)-5-phenyl-2-[(2S)-5-phenyl-2,3-dihydro-1,3-benzoxazol-2-yl]-2,3-dihydro-1,3-benzoxazole] |  | 71.2 |  | 4.2 | 2.2 | > 10 | > 10 | > 10 | 
15 | COc1ccc(C2=C[C@@H](c3ccc(OC)c(OC)c3)c3c(c4ccccc4oc3=O)O2)cc1OC [Ligand 211490, (4S)-2,4-bis(3,4-dimethoxyphenyl)-4H-pyrano[3,2-c]chromen-5-one] |  | 102.9 |  | 6.1 | 2.1 | 0.5 |  |  | 
16 | O=[N+]([O-])c1cc([N+](=O)[O-])c2cccnc2c1O [Ligand 57103] |  | 81.6 | slower off rates | 11.4 | 2.5 | 0.3 |  |  | 
